Results published in US4229452A, “Treatment of inflammatory disorders with 4-trifluoromethylimidazo[1,2-a]quinoxaline” (Westwood Pharmaceuticals, Inc., priority 1979, dated 1980).

How the values were obtained:
[1] = tested on: carrageenin-induced paw edema; test: carrageenin-induced paw edema test in the rat; format: in vivo, rat (Male Charles River); details: for inhibition in vivo at 16 mg/kg: 16 mg/kg po; for inhibition in vivo at 32 mg/kg: 32 mg/kg po; for inhibition in vivo at 64 mg/kg: 64 mg/kg po; for inhibition in vivo at 128 mg/kg: 128 mg/kg po; for ED30: calculated from the dose-response line; for inhibition in vivo at 8 mg/kg: 8 mg/kg po; for reduction of carrageenin-induced edema / anti-edema activity: result in words
Method: Compounds of the present invention were screened in the carrageenin-inducedpaw edema test in the rat. Acetylsalicylic acid was included in the study for reference comparison.
The method employed was the carrageenin edema test [Winter, C. A., Risley, E. A. and Nuss, G. W., Proc. Soc. exp. Biol. Med. 111:544(1962) and Halperin, B. N. and Briot, M., Arch Int. Pharmacody N. 82:247(1950)].
(§1) Male Charles River Rats weighing 145 to 180 g. were employed in the study. Food was withheld for 18 hours before the start of the test, while water was withheld only during the test. Experimental drugs with the desired dose in 3 ml. distilled water (Tween 80)/100 g. body weight were administered orally as suspensions by stomach tube. Control animals, those not receiving drugs, were given the same volume of vehicle by the same route of administration. To induce inflammation, the rear paw was injected into the plantar surface with 0.1 ml. of a 1% carrageenin solution in 0.9% saline. The right paw was also injected with 0.1 ml. of a 0.9% saline solution. At the time of sacrifice, the animals were killed by chloroform. The hind paws were rapidly amputated at tarsocrural joint and weighed on an analytical balance. In all cases the drugs were administered one hour before the paw injections and the sacrifice was performed three hours after the carrageenin injection. The difference in weight (g/100 b.w.) between the carrageenin and the saline injected paws was recorded as the degree of edema.
A comparison of the effectiveness of the test compounds and the standard reference agent, acetylsalicylic acid, in inhibiting edema resulting from the injection of carrageenin is recorded in the following Table XI.
It should be noted that ED30 refers to that dose which inhibits carrageenin-induced paw edema in 30% of the animals in the test group.

[2] = side-effects noted in the carrageenin-induced paw edema test; format: in vivo; details: rat; for Side-Effects Noted: rats died: 128 mg/kg po
Method: as §1

SMILES	inhibition in vivo at 64 mg/kg [1]	inhibition in vivo at 128 mg/kg [1]	ED30 ([1]; po)	Side-Effects Noted ([2]; po)	further results
CC(C)Cc1nc2ccccc2n2ccnc12	23%	36%	~70 mg/kg	–	inhibition in vivo at 16 mg/kg [1]: 0%; inhibition in vivo at 32 mg/kg [1]: 25%
C(=Cc1nc2ccccc2n2ccnc12)c1ccccc1	–	0%	> 128 mg/kg	NONE	–
c1ccc2c(c1)nc(C1CCC1)c1nccn12	0%	64%	~100 mg/kg	Ptosis at 128 mg/kg	–
c1ccc2c(c1)nc(C1CCCCC1)c1nccn12	0%	60%	~100 mg/kg	NONE	–
c1ccc(Cc2nc3ccccc3n3ccnc23)cc1	0%	0%	> 128 mg/kg	NONE	–
c1ccc(OCc2nc3ccccc3n3ccnc23)cc1	–	0%	> 128 mg/kg	NONE	–
CC(=O)Oc1ccccc1C(=O)O [ASPIRIN, acetylsalicylic acid, reference compound]	32.5%	41%	59.5 mg/kg	NONE	inhibition in vivo at 32 mg/kg [1]: 19%; inhibition in vivo at 256 mg/kg ([1]; 256 mg/kg po): 62%
c1ccc2c(c1)ncc1nccn12 [Compound 109, imidazo[1,2-a]quinoxaline]	6%	54%	~100 mg/kg	–	Side-Effects Noted: rats died [2]: 1/6
Cc1nc2ccccc2n2ccnc12 [Compound 110]	29%	42%	40 mg/kg	–	Side-Effects Noted: rats died [2]: 1/6; inhibition in vivo at 8 mg/kg [1]: 12%; inhibition in vivo at 16 mg/kg [1]: 28%; inhibition in vivo at 32 mg/kg [1]: 33%; reduction of carrageenin-induced edema / anti-edema activity ([1]; po): significant reductions of carrageenin-induced edema without attendant side effects
CCc1nc2ccccc2n2ccnc12 [Compound 111]	41%	57%	20.5 mg/kg	–	selectivity ratio ([2]; in vivo, po, read-out: dose associated with side effects, as multiple of ED30): ~3; inhibition in vivo at 4 mg/kg ([1]; 4 mg/kg po): 6%; inhibition in vivo at 8 mg/kg [1]: 23%; inhibition in vivo at 16 mg/kg [1]: 32%; inhibition in vivo at 32 mg/kg [1]: 40%; anti-edemic activity relative to acetylsalicylic acid ([1]; po): approximately 3 X acetylsalicylic acid; reduction of carrageenin-induced edema / anti-edema activity ([1]; po, listed as CH2 CH3): significant reductions of carrageenin-induced edema without attendant side effects; reduction of carrageenin-induced edema / anti-edema activity ([1]; po, listed as ethyl analog): strongest anti-edemic activity
CCCc1nc2ccccc2n2ccnc12 [Compound 112]	0%	36%	~128 mg/kg	–	–
CCCCCc1nc2ccccc2n2ccnc12 [Compound 114]	5%	23%	> 128 mg/kg	NONE	–
CCCCCCc1nc2ccccc2n2ccnc12 [Compound 115]	0%	27%	~128 mg/kg	NONE	–
CCCCCCCc1nc2ccccc2n2ccnc12 [Compound 116]	–	0%	> 128 mg/kg	NONE	–
CCCCCCCCc1nc2ccccc2n2ccnc12 [Compound 117]	–	0%	> 128 mg/kg	NONE	–
CCCCCCCCCc1nc2ccccc2n2ccnc12 [Compound 118]	–	0%	> 128 mg/kg	NONE	–
CCCCCCCCCCCCCCCc1nc2ccccc2n2ccnc12 [Compound 119]	–	9%	> 128 mg/kg	NONE	–
CCCCCCCCCCCCCCCCCc1nc2ccccc2n2ccnc12 [Compound 120]	0%	5%	> 128 mg/kg	NONE	–
FC(F)(F)c1nc2ccccc2n2ccnc12 [Compound 122, 4-trifluoromethylimidazo[1,2-a]quinoxaline]	39%	44%	35.1 mg/kg	–	dose associated with side effects, as multiple of ED30 ([2]; po): does not show side effects at several multiples of its ED30; Side-Effects Noted ([2]; po, listed as CF3): NONE and did not produce any obvious untoward side effects; Side-Effects Noted ([2]; po, listed as trifluoromethyl analog): did not produce any side effects even at a dose of 128 mg/kg; therapeutic index ([2]; po, result in words): very good therapeutic index; toxicity relative to the non-fluorinated analog ([2]; po, result in words): less toxic; inhibition in vivo at 8 mg/kg [1]: 8%; inhibition in vivo at 16 mg/kg [1]: 29%; inhibition in vivo at 32 mg/kg [1]: 31%; anti-inflammatory activity relative to the ethyl analog ([1]; po): about half; reduction of carrageenin-induced edema / anti-edema activity ([1]; po): significant reductions of carrageenin-induced edema without attendant side effects
COCc1nc2ccccc2n2ccnc12 [Compound 125]	1%	32%	~128 mg/kg	–	–
